What all share (test): relative viability (nuclei count vs DMSO), 5 days (fraction); higher = more cells survive
Compound in assay [1]: CC1=C(CC(=O)O)c2cc(F)ccc2/C1=C\c1ccc([S+](C)[O-])cc1 [Sulindac]
The gist of the method:
(§1)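 Lung cancer cell lines received five library-drug doses (not always all listed) spaced by √10, pinned on vehicle-anchored 1536-well plates after an overnight stay at 37 °C. Five days later, with no medium change, nuclei were Hoechst-stained, imaged at 4× and counted with MetaXpress. Viability is treated-well nuclei relative to vehicle-well nuclei, as a median across plates. Passing plates had control CV below 25% and at least one doubling.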

Compound in assay [2]: CN[C@@H]1C[C@H]2O[C@@](C)([C@@H]1OC)n1c3ccccc3c3c4c(c5c6ccccc6n2c5c31)C(=O)NC4 [Staurosporine]
A digest of the protocol: as §1

Compound in assay [3]: O=c1[nH]cc(F)c(=O)[nH]1 [5-Fluorouracil]
The gist of the method:
as §1

Compound in assay [4]: CN[C@@H]1C[C@H]2O[C@@](C)([C@@H]1OC)n1c3ccccc3c3c4c(c5c6ccccc6n2c5c31)C(=O)NC4 [Staurosporine] + Cc1nc(Nc2ncc(C(=O)Nc3c(C)cccc3Cl)s2)cc(N2CCN(CCO)CC2)n1 [Dasatinib] (partner 0.075 µM)
The gist of the method: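 Relative viability divides the nuclei count in treated wells by that in vehicle wells. Lung cancer cell lines were seeded in 1536-well plates, dosed by pin tool the next day, and fixed and stained after 5 days in one step with final 0.05% Triton X-100, 1% formaldehyde and 1 ug/ml Hoechst. Dosing was a single drug or a fixed anchor-drug dose plus five library-drug doses (not always all listed) in √10 steps, and values are medians of duplicate plates imaged at 4×.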

In the case of NCI-H1793, the relative viability in assay [1] (0.08 µM) was 0.904; in assay [1] (0.253 µM) it was 0.993; in assay [1] (0.8 µM), 0.722; in assay [1] (2.53 µM) it was 0.953; in assay [1] (8 µM), 0.908; in assay [2] (0.005 µM) it was 0.921. The relative viability in assay [2] (0.05 µM) worked out at 0.628; in assay [2] (0.1581 µM), 0.205; in assay [2] (0.5 µM), 0.152; in assay [3] (0.02 µM) it was 0.968; in assay [3] (0.2 µM), 1.18; in assay [3] (0.6325 µM) it was 0.985. Moreover, the relative viability is 0.554 in assay [3] (2 µM); 0.457 in assay [4] (first compound 0.005 µM); 0.302 in assay [4] (first compound 0.05 µM); 0.141 in assay [4] (first compound 0.1581 µM); 0.144 in assay [4] (first compound 0.5 µM).

In the case of NCI-H1915, the relative viability was found to be 1.13 in assay [1] (0.08 µM); 1.09 in assay [1] (0.253 µM); 0.878 in assay [1] (0.8 µM); 0.965 in assay [1] (2.53 µM); 1.03 in assay [1] (8 µM); 0.944 in assay [2] (0.005 µM). Also, the relative viability in assay [2] (0.01581 µM) is 0.119; in assay [2] (0.05 µM), 0.406; in assay [2] (0.1581 µM), 0.18; in assay [2] (0.5 µM), 0.118; in assay [3] (0.02 µM), 0.818; in assay [3] (0.2 µM), 0.986. For the same cell line, the relative viability in assay [3] (0.6325 µM) came out at 0.956; in assay [3] (2 µM) it was 0.779; in assay [4] (first compound 0.005 µM), 0.212; in assay [4] (first compound 0.01581 µM) it was 0.0927; in assay [4] (first compound 0.05 µM) it was 0.204; in assay [4] (first compound 0.1581 µM), 0.0847. The relative viability in assay [4] (first compound 0.5 µM) was 0.0869.

NCI-H1944: the relative viability in assay [1] (0.08 µM) turned out to be 0.997; in assay [1] (0.253 µM), 1.03; in assay [1] (0.8 µM) it was 0.908; in assay [1] (2.53 µM), 0.904; in assay [1] (8 µM), 1.11; in assay [2] (0.005 µM) it was 0.983. For the same cell line, the relative viability in assay [2] (0.01581 µM) came out at 0.699; in assay [2] (0.05 µM), 0.567; in assay [2] (0.1581 µM), 0.353; in assay [2] (0.5 µM), 0.246; in assay [3] (0.02 µM), 0.91; in assay [3] (0.2 µM), 0.905. Also, the relative viability amounted to 0.293 in assay [3] (0.6325 µM); 0.195 in assay [3] (2 µM); 0.212 in assay [4] (first compound 0.005 µM); 0.271 in assay [4] (first compound 0.01581 µM); 0.203 in assay [4] (first compound 0.05 µM); 0.172 in assay [4] (first compound 0.1581 µM). Moreover, the relative viability in assay [4] (first compound 0.5 µM) was determined as 0.134.

As to NCI-H1975, the relative viability in assay [1] (0.08 µM) was found to be 1.09; in assay [1] (0.253 µM) it was 0.969; in assay [1] (0.8 µM), 0.795; in assay [1] (2.53 µM) it was 0.998; in assay [1] (8 µM), 1.07; in assay [2] (0.005 µM) it was 0.475. In addition, the relative viability in assay [2] (0.01581 µM) amounted to 0.365; in assay [2] (0.05 µM), 0.258; in assay [2] (0.1581 µM), 0.159; in assay [2] (0.5 µM), 0.136; in assay [3] (0.02 µM), 0.968; in assay [3] (0.2 µM), 1.07. The relative viability in assay [3] (0.6325 µM) worked out at 0.566; in assay [3] (2 µM) it was 0.343; in assay [4] (first compound 0.005 µM), 0.29; in assay [4] (first compound 0.01581 µM), 0.177; in assay [4] (first compound 0.05 µM) it was 0.152; in assay [4] (first compound 0.1581 µM) it was 0.1. Moreover, the relative viability in assay [4] (first compound 0.5 µM) stood at 0.0812.

NCI-H1993: the relative viability in assay [1] (0.08 µM) turned out to be 0.923; in assay [1] (0.253 µM) it was 0.867; in assay [1] (0.8 µM) it was 0.82; in assay [1] (2.53 µM), 0.83; in assay [1] (8 µM), 0.953; in assay [2] (0.005 µM), 1.02. Also, the relative viability in assay [2] (0.01581 µM) turned out to be 0.537; in assay [2] (0.05 µM) it was 0.57; in assay [2] (0.1581 µM) it was 0.458; in assay [2] (0.5 µM), 0.329; in assay [3] (0.02 µM), 1.01; in assay [3] (0.2 µM) it was 0.665. The relative viability is 0.672 in assay [3] (0.6325 µM); 0.749 in assay [3] (2 µM); 0.646 in assay [4] (first compound 0.005 µM); 0.454 in assay [4] (first compound 0.01581 µM); 0.54 in assay [4] (first compound 0.05 µM); 0.488 in assay [4] (first compound 0.1581 µM). Also, the relative viability in assay [4] (first compound 0.5 µM) is 0.509.

Turning to NCI-H2009, the relative viability came to 1.1 in assay [1] (0.08 µM); 1.08 in assay [1] (0.253 µM); 0.972 in assay [1] (0.8 µM); 1 in assay [1] (2.53 µM); 1.11 in assay [1] (8 µM); 0.452 in assay [2] (0.005 µM). The relative viability in assay [2] (0.01581 µM) was found to be 0.227; in assay [2] (0.05 µM), 0.231; in assay [2] (0.1581 µM), 0.167; in assay [2] (0.5 µM), 0.109; in assay [3] (0.02 µM) it was 1.1; in assay [3] (0.2 µM), 1.02. The relative viability in assay [3] (0.6325 µM) is 0.82; in assay [3] (2 µM), 0.652; in assay [4] (first compound 0.005 µM), 0.197; in assay [4] (first compound 0.01581 µM), 0.158; in assay [4] (first compound 0.05 µM), 0.152; in assay [4] (first compound 0.1581 µM), 0.153. The relative viability in assay [4] (first compound 0.5 µM) was 0.116.

On to NCI-H2023, for which the relative viability in assay [1] (0.08 µM) amounted to 1.39; in assay [1] (0.253 µM) it was 1.05; in assay [1] (0.8 µM), 0.744; in assay [1] (2.53 µM), 1.01; in assay [1] (8 µM) it was 1.13; in assay [2] (0.005 µM), 0.471. Besides, the relative viability was found to be 0.289 in assay [2] (0.01581 µM); 0.178 in assay [2] (0.05 µM); 0.0889 in assay [2] (0.1581 µM); 0.0533 in assay [2] (0.5 µM); 0.849 in assay [3] (0.02 µM); 0.227 in assay [3] (0.2 µM). In addition, the relative viability is 0.133 in assay [3] (0.6325 µM); 0.0914 in assay [3] (2 µM); 0.365 in assay [4] (first compound 0.005 µM); 0.198 in assay [4] (first compound 0.01581 µM); 0.126 in assay [4] (first compound 0.05 µM); 0.0785 in assay [4] (first compound 0.1581 µM). The relative viability in assay [4] (first compound 0.5 µM) stood at 0.0455.
